# Test results reported in patent publication US20090326037A1 (priority 2005, published 2009).
# “And” between values parts separate entries of the source, which are not always exact repeats. Equal values may be shown once.
# System: influenza A/Singapore/1/57 virus
# Test: microbe, parasite or virus in culture
# Type: cell-based
# [1] = Influenza A virus, MDCK, read-out: percent of inhibition of viral reproduction
molecule,measurement,setting,value
CC(=O)N[C@H]1[C@H]([C@H](O)[C@H](O)CO)OC(C(=O)O)=C[C@@H]1N=C(N)N [Zanamivir],Percent of inhibition of OD 490,"Zanamivir 0.3 μg alone (A or B 0 μg/ml), two values: A series, B series, added 2 hours after infection",27% and 15%
same,Percent of inhibition of OD 490,"Zanamivir 1 μg alone (A or B 0 μg/ml), two values: A series, B series, added 2 hours after infection",29% and 15%
same,Percent of inhibition of OD 490,"Zanamivir 3.3 μg alone (A or B 0 μg/ml), two values: A series, B series, added 2 hours after infection",36% and 20%
same,Percent of inhibition of OD 490,"Zanamivir 10 μg alone (A or B 0 μg/ml), two values: A series, B series, added 2 hours after infection",43% and 22%
same,Percent of inhibition of OD 490,"Zanamivir 33 μg alone (A or B 0 μg/ml), two values: A series, B series, added 2 hours after infection",49% and 28%
same,suppression of reproduction,ten times greater amount (than 3.3 mg) of zanamivir or oseltamivir without the addition of arbidol,50%
NC(=O)c1ncn([C@@H]2O[C@H](CO)[C@@H](O)[C@H]2O)n1 [Ribavirin],inhibition at 1 µg/mL,[1],5%
same,inhibition at 3 µg/mL,[1],25%
same,inhibition at 10 µg/mL,[1],30%
same,inhibition at 15 µg/mL,[1],38%
1-methyl-2-(4-oxyethyl-phenylsulfomethyl)-3-carbethoxy-4-dimethylaminomethyl-5-oxy-6-bromindol,Percent of inhibition of OD 490,"A or C 0.3 μg/ml + Oseltamivir 0.4 μg, added 2 hours after infection",15%
same,Percent of inhibition of OD 490,"A or C 0.3 μg/ml + Oseltamivir 1.2 μg, added 2 hours after infection",16%
same,Percent of inhibition of OD 490,"A or C 0.3 μg/ml + Oseltamivir 4.1 μg, added 2 hours after infection",18%
same,Percent of inhibition of OD 490,"A or C 0.3 μg/ml + Oseltamivir 12.3 μg, added 2 hours after infection",35%
same,Percent of inhibition of OD 490,"A or C 0.3 μg/ml + Oseltamivir 41 μg, added 2 hours after infection",40%
same,Percent of inhibition of OD 490,"A or C 0.3 μg/ml alone (Oseltamivir 0), added 2 hours after infection",no
same,Percent of inhibition of OD 490,"A or C 1 μg/ml + Oseltamivir 0.4 μg, added 2 hours after infection",30%
same,Percent of inhibition of OD 490,"A or C 1 μg/ml + Oseltamivir 1.2 μg, added 2 hours after infection",31%
same,Percent of inhibition of OD 490,"A or C 1 μg/ml + Oseltamivir 4.1 μg, added 2 hours after infection",41%
same,Percent of inhibition of OD 490,"A or C 1 μg/ml + Oseltamivir 12.3 μg, added 2 hours after infection",88%
same,Percent of inhibition of OD 490,"A or C 1 μg/ml + Oseltamivir 41 μg, added 2 hours after infection",90%
same,Percent of inhibition of OD 490,"A or C 1 μg/ml alone (Oseltamivir 0), added 2 hours after infection",no
same,Percent of inhibition of OD 490,"A or C 3 μg/ml + Oseltamivir 0.4 μg, added 2 hours after infection",35%
same,Percent of inhibition of OD 490,"A or C 3 μg/ml + Oseltamivir 1.2 μg, added 2 hours after infection",37%
same,Percent of inhibition of OD 490,"A or C 3 μg/ml + Oseltamivir 4.1 μg, added 2 hours after infection",60%
same,Percent of inhibition of OD 490,"A or C 3 μg/ml + Oseltamivir 12.3 μg, added 2 hours after infection",91%
same,Percent of inhibition of OD 490,"A or C 3 μg/ml + Oseltamivir 41 μg, added 2 hours after infection","100, 100%"
same,Percent of inhibition of OD 490,"A or C 3 μg/ml alone (Oseltamivir 0), added 2 hours after infection",no
same,Percent of inhibition of OD 490,"A or C 5 μg/ml + Oseltamivir 0.4 μg, added 2 hours after infection",50%
same,Percent of inhibition of OD 490,"A or C 5 μg/ml + Oseltamivir 1.2 μg, added 2 hours after infection",40%
same,Percent of inhibition of OD 490,"A or C 5 μg/ml + Oseltamivir 4.1 μg, added 2 hours after infection",96%
same,Percent of inhibition of OD 490,"A or C 5 μg/ml + Oseltamivir 12.3 μg, added 2 hours after infection",96%
same,Percent of inhibition of OD 490,"A or C 5 μg/ml + Oseltamivir 41 μg, added 2 hours after infection","100, 100%"
same,Percent of inhibition of OD 490,"A or C 5 μg/ml alone (Oseltamivir 0), added 2 hours after infection",no
same,Percent of inhibition of OD 490,"A or C 10 μg/ml + Oseltamivir 0.4 μg, added 2 hours after infection",46%
same,Percent of inhibition of OD 490,"A or C 10 μg/ml + Oseltamivir 1.2 μg, added 2 hours after infection",65%
same,Percent of inhibition of OD 490,"A or C 10 μg/ml + Oseltamivir 4.1 μg, added 2 hours after infection",95%
same,Percent of inhibition of OD 490,"A or C 10 μg/ml + Oseltamivir 12.3 μg, added 2 hours after infection",95%
same,Percent of inhibition of OD 490,"A or C 10 μg/ml + Oseltamivir 41 μg, added 2 hours after infection",98%
same,Percent of inhibition of OD 490,"A or C 10 μg/ml alone (Oseltamivir 0), added 2 hours after infection",10%
1-methyl-2-(n-methyl-phenylsulfomethyl)-3-carbethoxy-4-dimethylaminomethyl-5-oxy-6-bromindol,Percent of inhibition of OD 490,"A or D 1 μg/ml + Amantadin 0.3 μg/ml, added 30 min prior to infection",17%
same,Percent of inhibition of OD 490,"A or D 1 μg/ml + Amantadin 1 μg/ml, added 30 min prior to infection",18%
same,Percent of inhibition of OD 490,"A or D 1 μg/ml + Amantadin 5 μg/ml, added 30 min prior to infection",29%
same,Percent of inhibition of OD 490,"A or D 1 μg/ml + Amantadin 10 μg/ml, added 30 min prior to infection",45%
same,Percent of inhibition of OD 490,"A or D 1 μg/ml + Remantadin 0.3 μg/ml, added 30 min prior to infection",18%
same,Percent of inhibition of OD 490,"A or D 1 μg/ml + Remantadin 1 μg/ml, added 30 min prior to infection",20%
same,Percent of inhibition of OD 490,"A or D 1 μg/ml + Remantadin 5 μg/ml, added 30 min prior to infection",36%
same,Percent of inhibition of OD 490,"A or D 1 μg/ml + Remantadin 10 μg/ml, added 30 min prior to infection",42%
same,Percent of inhibition of OD 490,"A or D 1 μg/ml alone (Amantadin 0), added 30 min prior to infection",15%
same,Percent of inhibition of OD 490,"A or D 1 μg/ml alone (Remantadin 0), added 30 min prior to infection",12%
same,Percent of inhibition of OD 490,"A or D 5 μg/ml + Amantadin 0.3 μg/ml, added 30 min prior to infection",38%
same,Percent of inhibition of OD 490,"A or D 5 μg/ml + Amantadin 1 μg/ml, added 30 min prior to infection",41%
same,Percent of inhibition of OD 490,"A or D 5 μg/ml + Amantadin 5 μg/ml, added 30 min prior to infection",53%
same,Percent of inhibition of OD 490,"A or D 5 μg/ml + Amantadin 10 μg/ml, added 30 min prior to infection",70%
same,Percent of inhibition of OD 490,"A or D 5 μg/ml + Remantadin 0.3 μg/ml, added 30 min prior to infection",48%
same,Percent of inhibition of OD 490,"A or D 5 μg/ml + Remantadin 1 μg/ml, added 30 min prior to infection",44%
same,Percent of inhibition of OD 490,"A or D 5 μg/ml + Remantadin 5 μg/ml, added 30 min prior to infection",50%
same,Percent of inhibition of OD 490,"A or D 5 μg/ml + Remantadin 10 μg/ml, added 30 min prior to infection",73%
same,Percent of inhibition of OD 490,"A or D 5 μg/ml alone (Amantadin 0), added 30 min prior to infection",24%
same,Percent of inhibition of OD 490,"A or D 5 μg/ml alone (Remantadin 0), added 30 min prior to infection",20%
same,Percent of inhibition of OD 490,"A or D 10 μg/ml + Amantadin 0.3 μg/ml, added 30 min prior to infection",57%
same,Percent of inhibition of OD 490,"A or D 10 μg/ml + Amantadin 1 μg/ml, added 30 min prior to infection",70%
same,Percent of inhibition of OD 490,"A or D 10 μg/ml + Amantadin 5 μg/ml, added 30 min prior to infection",75%
same,Percent of inhibition of OD 490,"A or D 10 μg/ml + Amantadin 10 μg/ml, added 30 min prior to infection",80%
same,Percent of inhibition of OD 490,"A or D 10 μg/ml + Remantadin 0.3 μg/ml, added 30 min prior to infection",69%
same,Percent of inhibition of OD 490,"A or D 10 μg/ml + Remantadin 1 μg/ml, added 30 min prior to infection",69%
same,Percent of inhibition of OD 490,"A or D 10 μg/ml + Remantadin 5 μg/ml, added 30 min prior to infection",70%
same,Percent of inhibition of OD 490,"A or D 10 μg/ml + Remantadin 10 μg/ml, added 30 min prior to infection",75%
same,Percent of inhibition of OD 490,"A or D 10 μg/ml alone (Amantadin 0), added 30 min prior to infection",40%
same,Percent of inhibition of OD 490,"A or D 10 μg/ml alone (Remantadin 0), added 30 min prior to infection",54%
CC(N)C12CC3CC(CC(C3)C1)C2 (stereo not drawn) [Remantadin],Percent of inhibition of OD 490,"Remantadin 5 μg/ml alone (A or D 0 μg/ml), two values: A series, D series, added 30 min prior to infection",56% and 41%
same,Percent of inhibition of OD 490,"Remantadin 10 μg/ml alone (A or D 0 μg/ml), two values: A series, D series, added 30 min prior to infection",59% and 40%
